This note sets out measurements from patent US11390613B2, “Azole analogues and methods of use thereof” (UNIVERSITY OF CONNECTICUT, priority 2017, dated 2022).

SMILES strings stand for the structures. Where two headings read alike, the source gives them in different places.

This test deals with Gli1 mRNA levels in the murine BCC cell line ASZ-001 (Hh pathway). Kind of test: Hh pathway inhibition: endogenous Gli1 mRNA (qRT-PCR) in ASZ-001 cells. The test is classed as cell-based. The procedure:
Initial Hh inhibition studies.
General Information for Cell Culture Studies Protocols for general cell culture, qPCR, and Hh inhibition ASZ cells are as previously described.
General Information for Cell Culture Studies. Protocols for general cell culture, qPCR, and Hh inhibition ASZ cells are as previously described.
Gene Expression Assay Protocol (ASZ-001): Cells are seeded (10,000 cells per well; 100 μL total volume per well) in a 96-well tissue culture plate. After 24 h of incubation (37° C., 5% CO2), growth media was removed and replaced with low FBS media. Cells were incubated for an additional 24 h. After this time, DMSO (vehicle control) and liposomes (Aqueous Solution) were added to the wells. […]
Rt-PCR Protocol: Following treatment and incubation periods, both RNA extraction and cDNA synthesis were performed using a TaqMan Cells-to-CT (fast) kit. cDNA synthesis utilized a BioRad MyCycler and was programmed according to the manufacturer's instructions. Quantitative RT-PCR was performed on an ABI 7500 system and made use of the following TaqMan Gene Expression Probes: mouse ActB (Mm00607939_s1) and mouse Gli1 (Mm00494654_m1). Relative gene expression levels were computed via ΔΔCT method using GraphPad Prism. Corresponding IC50 values were calculated as mean±SEM for at least three separate experiments performed in triplicate.

The mark [1] stands for this setting: Table 6, ASZ cells, Gli1 mRNA, 48 h incubation, read-out: IC50.
[2] abbreviates: Table 7, ASZ cells, Gli1 mRNA, 48 h incubation, read-out: IC50.
[3] abbreviates: Table 7, ASZ cells, Gli1 mRNA, 48 h incubation.
The mark [4] stands for this setting: Mus musculus, ASZ001, Table P2, ASZ cells, Gli1 mRNA, 48 h incubation, read-out: IC50.

Broadly, the IC50 is the concentration needed to halve the response being measured.

The molecule `C[C@@]1(c2ccc(Cl)cc2Cl)OC[C@@H](COc2ccc(N3CCN(c4ccc([N+](=O)[O-])cc4)CC3)cc2)O1` [Compound 6, 1-(4-(((2R,4R)-2-(2,4-dichlorophenyl)-2-methyl-1,3-dioxolan-4-yl)methoxy)phenyl)-4-(4-nitrophenyl)piperazine] came in with an IC50 (Mus musculus, ASZ001, 48 h) of 0.31 ± 0.04 µM.
As for `C[C@]1(c2ccc(Cl)cc2Cl)OC[C@@H](COc2ccc(N3CCN(c4ccc([N+](=O)[O-])cc4)CC3)cc2)O1` [Compound 7, 1-(4-(((2S,4R)-2-(2,4-dichlorophenyl)-2-methyl-1,3-dioxolan-4-yl)methoxy)phenyl)-4-(4-nitrophenyl)piperazine], the IC50 (Mus musculus, ASZ001, 48 h) was 0.26 ± 0.04 µM.
Where the note is “Mus musculus, ASZ001, 48 h”, `C[C@]1(c2ccc(Cl)cc2Cl)OC[C@@H](COc2ccc(N3CCN(c4ccc(N)cc4)CC3)cc2)O1` [Compound 9, 4-(4-(4-(((2S,4R)-2-(2,4-dichlorophenyl)-2-methyl-1,3-dioxolan-4-yl)methoxy)phenyl)piperazin-1-yl)aniline] returned an IC50 of 0.39 ± 0.09 µM.
As to `C[C@@]1(c2ccc(Cl)cc2Cl)OC[C@@H](COc2ccc(N3CCN(c4ccc(NC(=O)c5ccccc5)cc4)CC3)cc2)O1` [Compound 10, N-(4-(4-(4-(((2R,4R)-2-(2,4-dichlorophenyl)-2-methyl-1,3-dioxolan-4-yl)methoxy)phenyl)piperazin-1-yl)phenyl)benzamide], under setting [1], the IC50 is above 10 µM.
Turning to `C[C@@]1(c2ccc(Cl)cc2Cl)OC[C@@H](COc2ccc(N3CCN(c4ccc(NC(=O)c5ccc6ccccc6c5)cc4)CC3)cc2)O1` [Compound 11, N-(4-(4-(4-(((2R,4R)-2-(2,4-dichlorophenyl)-2-methyl-1,3-dioxolan-4-yl)methoxy)phenyl)piperazin-1-yl)phenyl)-2-naphthamide], the IC50 under setting [1] is above 10 µM.
`C[C@@]1(c2ccc(Cl)cc2Cl)OC[C@@H](COc2ccc(N3CCN(c4ccc(NC(=O)c5ccccn5)cc4)CC3)cc2)O1` [Compound 12, N-(4-(4-(4-(((2R,4R)-2-(2,4-dichlorophenyl)-2-methyl-1,3-dioxolan-4-yl)methoxy)phenyl)piperazin-1-yl)phenyl)picolinamide]: the IC50 under setting [1] was above 10 µM.
The same measure, in the same setting: the result for `C[C@@]1(c2ccc(Cl)cc2Cl)OC[C@@H](COc2ccc(N3CCN(c4ccc(NC(=O)c5ccncc5)cc4)CC3)cc2)O1` [Compound 14, N-(4-(4-(4-(((2R,4R)-2-(2,4-dichlorophenyl)-2-methyl-1,3-dioxolan-4-yl)methoxy)phenyl)piperazin-1-yl)phenyl)isonicotinamide] reads above 10 µM; that for `C[C@]1(c2ccc(Cl)cc2Cl)OC[C@@H](COc2ccc(N3CCN(c4ccc(NC(=O)c5ccccc5)cc4)CC3)cc2)O1` [Compound 15, N-(4-(4-(4-(((2S,4R)-2-(2,4-dichlorophenyl)-2-methyl-1,3-dioxolan-4-yl)methoxy)phenyl)piperazin-1-yl)phenyl)benzamide], above 10 µM.
The same measure, in the same setting: the result for `C[C@]1(c2ccc(Cl)cc2Cl)OC[C@@H](COc2ccc(N3CCN(c4ccc(NC(=O)c5ccc6ccccc6c5)cc4)CC3)cc2)O1` [Compound 16, N-(4-(4-(4-(((2S,4R)-2-(2,4-dichlorophenyl)-2-methyl-1,3-dioxolan-4-yl)methoxy)phenyl)piperazin-1-yl)phenyl)-2-naphthamide] reads above 10 µM.
`C[C@]1(c2ccc(Cl)cc2Cl)OC[C@@H](COc2ccc(N3CCN(c4ccc(NC(=O)c5ccccn5)cc4)CC3)cc2)O1` [Compound 17, N-(4-(4-(4-(((2S,4R)-2-(2,4-dichlorophenyl)-2-methyl-1,3-dioxolan-4-yl)methoxy)phenyl)piperazin-1-yl)phenyl)picolinamide] displayed an IC50 (Mus musculus, ASZ001, 48 h) of 3.9 ± 0.3 µM.
In the case of `C[C@]1(c2ccc(Cl)cc2Cl)OC[C@@H](COc2ccc(N3CCN(c4ccc(NC(=O)c5ccncc5)cc4)CC3)cc2)O1` [Compound 19, N-(4-(4-(4-(((2S,4R)-2-(2,4-dichlorophenyl)-2-methyl-1,3-dioxolan-4-yl)methoxy)phenyl)piperazin-1-yl)phenyl)isonicotinamide], the IC50 under setting [1] was above 10 µM.
Consider `C[C@@]1(c2ccc(Cl)cc2Cl)OC[C@@H](COc2ccc(N3CCN(c4ccc(NC(=O)c5ccccc5O)cc4)CC3)cc2)O1` [Compound 26, N-(4-(4-(4-(((2R,4R)-2-(2,4-dichlorophenyl)-2-methyl-1,3-dioxolan-4-yl)methoxy)phenyl)piperazin-1-yl)phenyl)-2-hydroxybenzamide], for which the IC50 under setting [1] was above 10 µM.
Take `C[C@@]1(c2ccc(Cl)cc2Cl)OC[C@@H](COc2ccc(N3CCN(c4ccc(NC(=O)c5ccc(O)cc5)cc4)CC3)cc2)O1` [Compound 28, N-(4-(4-(4-(((2R,4R)-2-(2,4-dichlorophenyl)-2-methyl-1,3-dioxolan-4-yl)methoxy)phenyl)piperazin-1-yl)phenyl)-4-hydroxybenzamide]: the concentration for half-maximal inhibition (IC50) under setting [1] is above 10 µM.
The molecule `C[C@]1(c2ccc(Cl)cc2Cl)OC[C@@H](COc2ccc(N3CCN(c4ccc(NC(=O)c5ccccc5O)cc4)CC3)cc2)O1` [Compound 29, N-(4-(4-(4-(((2S,4R)-2-(2,4-dichlorophenyl)-2-methyl-1,3-dioxolan-4-yl)methoxy)phenyl)piperazin-1-yl)phenyl)-2-hydroxybenzamide] had an IC50 (Mus musculus, ASZ001, 48 h) of 2.2 ± 0.3 µM.
Turning to `C[C@]1(c2ccc(Cl)cc2Cl)OC[C@@H](COc2ccc(N3CCN(c4ccc(NC(=O)c5ccc(O)cc5)cc4)CC3)cc2)O1` [Compound 31, N-(4-(4-(4-(((2S,4R)-2-(2,4-dichlorophenyl)-2-methyl-1,3-dioxolan-4-yl)methoxy)phenyl)piperazin-1-yl)phenyl)-4-hydroxybenzamide], the IC50 under setting [1] turned out to be 3 ± 0.1 µM.
On to `C[C@]1(c2ccc(Cl)cc2Cl)OC[C@@H](COc2ccc(N3CCN(c4ccc(NC(=O)c5cccc(Cl)c5)cc4)CC3)cc2)O1` [Compound 32, 3-chloro-N-(4-(4-(4-(((2S,4R)-2-(2,4-dichlorophenyl)-2-methyl-1,3-dioxolan-4-yl)methoxy)phenyl)piperazin-1-yl)phenyl)benzamide], for which, under setting [2], the IC50 was above 10 µM.
As to `COc1cccc(C(=O)Nc2ccc(N3CCN(c4ccc(OC[C@@H]5CO[C@](C)(c6ccc(Cl)cc6Cl)O5)cc4)CC3)cc2)c1` [Compound 33, N-(4-(4-(4-(((2S,4R)-2-(2,4-dichlorophenyl)-2-methyl-1,3-dioxolan-4-yl)methoxy)phenyl)piperazin-1-yl)phenyl)-3-methoxybenzamide], the IC50 (Mus musculus, ASZ001, 48 h) amounted to 5.7 µM.
On to `C[C@]1(c2ccc(Cl)cc2Cl)OC[C@@H](COc2ccc(N3CCN(c4ccc(NC(=O)c5ccoc5)cc4)CC3)cc2)O1` [Compound 35, N-(4-(4-(4-(((2S,4R)-2-(2,4-dichlorophenyl)-2-methyl-1,3-dioxolan-4-yl)methoxy)phenyl)piperazin-1-yl)phenyl)furan-3-carboxamide], for which, under setting [3], the “IC50 (μM)” value was “inactive”. Also, the IC50 under setting [2] was above 10 µM.
In the case of `C[C@]1(c2ccc(Cl)cc2Cl)OC[C@@H](COc2ccc(N3CCN(c4ccc(NC(=O)c5ccsc5)cc4)CC3)cc2)O1` [Compound 36, N-(4-(4-(4-(((2S,4R)-2-(2,4-dichlorophenyl)-2-methyl-1,3-dioxolan-4-yl)methoxy)phenyl)piperazin-1-yl)phenyl)thiophene-3-carboxamide], the “IC50 (μM)” value under setting [3] was “inactive”. In addition, under setting [2], the IC50 is above 10 µM.
Regarding `C[C@@]1(c2ccc(Cl)cc2Cl)OC[C@@H](COc2ccc(N3CCN(c4ccc(-n5cn[nH]c5=O)cc4)CC3)cc2)O1` [Compound 41], where the note is “Table 8, ASZ cells, Gli1 mRNA, 48 h incubation, read-out: IC50”, the IC50 stood at 0.14 µM.
For the setting “Mus musculus, ASZ001, 48 h”, `C[C@]1(c2ccc(Cl)cc2Cl)OC[C@@H](COc2ccc(N3CCN(c4ccc(-n5cn[nH]c5=O)cc4)CC3)cc2)O1` [Compound 42, 4-(4-(4-(4-(((2S,4R)-2-(2,4-dichlorophenyl)-2-methyl-1,3-dioxolan-4-yl)methoxy)phenyl)piperazin-1-yl)phenyl)-1H-1,2,4-triazol-5(4H)-one] displayed an IC50 of 0.21 µM.
On to `CC1(c2ccc(Cl)cc2Cl)OCC(COc2ccc(N3CCN(c4ccc(-n5cnn(CCC(=O)O)c5=O)cc4)CC3)cc2)O1` (centres unmarked) [Compound I17, 3-(4-(4-(4-(4-((2-(2,4-dichlorophenyl)-2-methyl-1,3-dioxolan-4-yl)methoxy)phenyl)piperazin-1-yl)phenyl)-5-oxo-4,5-dihydro-1H-1,2,4-triazol-1-yl)propanoic acid], for which the IC50 under setting [4] was found to be 0.012 ± 0.005 µM.
In the case of `C[C@]1(c2ccc(F)cc2F)C[C@H](COc2ccc(N3CCN(c4ccc(-n5cnn(CCC(=O)O)c5=O)cc4)CC3)cc2)CO1` [Compound P13, 3-(4-(4-(4-(4-(((3R,5R)-5-(2,4-difluorophenyl)-5-methyltetrahydrofuran-3-yl)methoxy)phenyl)piperazin-1-yl)phenyl)-5-oxo-4,5-dihydro-1H-1,2,4-triazol-1-yl)propanoic acid], the IC50 under setting [4] worked out at 0.032 ± 0.01 µM.
With `C[C@]1(c2ccc(F)cc2F)C[C@H](COc2ccc(N3CCN(c4ccc(-n5cnn(CC(=O)O)c5=O)cc4)CC3)cc2)CO1` [Compound P14, 2-(4-(4-(4-(4-(((3R,5R)-5-(2,4-difluorophenyl)-5-methyltetrahydrofuran-3-yl)methoxy)phenyl)piperazin-1-yl)phenyl)-5-oxo-4,5-dihydro-1H-1,2,4-triazol-1-yl)acetic acid], the IC50 under setting [4] was determined as 0.15 ± 0.02 µM.
